Data reported in EP4603105A1, “PHARMACEUTICAL COMPOSITION CONTAINING CYCLIC COMPOUND HAVING SELECTIVE KRAS INHIBITORY EFFECT AGAINST HRAS AND NRAS” (CHUGAI SEIYAKU KABUSHIKI KAISHA, priority 2022, dated 2024).
Where a SMILES comes first, the peptide text is derived from it. Bridges are numbered along the chain shown (N, C = ends). [ ]: non-standard residue; d: D form. hPhe(3-Cl-4-CF3) = N[C@@H](CCc1ccc(C(F)(F)F)c(Cl)c1)C(=O)O; NPrPhe(4-CF3) = CCCN[C@@H](Cc1ccc(C(F)(F)F)cc1)C(=O)O; NMeGly(cPent) = CN[C@H](C(=O)O)C1CCCC1; Pro(4,4-F2) = O=C(O)[C@@H]1CC(F)(F)CN1; NMeL = CN[C@@H](CC(C)C)C(=O)O; Ac5c = NC1(C(=O)O)CCCC1; Sar = CNCC(=O)O

Key:
[1] = system: human lung cancer strain NCI-H441; assay type: cell-based
Outline: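 Readout: […] after the ATP-based reagent. Compound: serial dilutions in dimethyl sulfoxide.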

[2] = biological target: HRAS wild-type protein (Homo sapiens, UniProt P01112); assay: Binding to HRAS by surface plasmon resonance (SPR), KD and KD ratio to KRAS
HRAS wild-type protein, sequence (P01112 whole entry): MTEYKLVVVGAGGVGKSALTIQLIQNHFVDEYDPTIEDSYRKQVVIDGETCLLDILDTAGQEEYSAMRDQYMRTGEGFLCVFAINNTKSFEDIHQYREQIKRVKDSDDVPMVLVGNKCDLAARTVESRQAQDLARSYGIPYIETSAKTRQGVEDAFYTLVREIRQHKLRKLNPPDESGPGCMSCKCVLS
Outline: (§1)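 Affinity is measured by surface plasmon resonance at 30°C against captured, GDP-loaded RAS carrying a biotinylated Avi tag. Compounds are titrated by single-cycle kinetics, and KD comes from a 1:1 fit.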

[3] = biological target: GDP-bound NRAS wild-type protein (Homo sapiens, UniProt P01111); assay: Binding to NRAS by surface plasmon resonance (SPR), KD and KD ratio to KRAS
GDP-bound NRAS wild-type protein, sequence (P01111 whole entry): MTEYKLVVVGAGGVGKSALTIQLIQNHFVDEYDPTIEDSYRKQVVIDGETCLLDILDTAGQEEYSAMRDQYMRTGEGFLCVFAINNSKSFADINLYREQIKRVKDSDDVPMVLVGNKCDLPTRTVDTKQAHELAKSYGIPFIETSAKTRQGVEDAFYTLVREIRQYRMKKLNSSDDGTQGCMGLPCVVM
Outline: as §1

[4] = ratio of KD for HRAS wild-type protein to KD for KRAS
[5] = ratio of KD for GDP-bound NRAS wild-type protein to KD for KRAS
[6] = ratio of KD value for HRAS wild-type protein to KD value for KRAS (SPR)
[7] = ratio of KD value for GDP-bound NRAS wild-type protein to KD value for KRAS (SPR)
[8] = ratio of the KD value with respect to HRAS wild-type protein to the KD value with respect to KRAS
[9] = ratio of the KD value with respect to GDP-bound NRAS wild-type protein to the KD value with respect to KRAS

SMILES | IC50 [1] [nM] | HRAS /KRAS [2, 4] | NRAS /KRAS [3, 5] | HRAS /KRAS [2, 6] | NRAS /KRAS [3, 7] | HRAS /KRAS [2, 8] | NRAS /KRAS [3, 9]
CCO[C@@H]1C[C@H]2C(=O)NC3(CCC3)C(=O)N(C)[C@@H](C(CC)CC)C(=O)N(C)[C@H](C(=O)N3CCCC3)CC(=O)N(C)[C@H]3CCC/C=C/c4ccc(cc4)C[C@@H](C(=O)N(C)CC(=O)N[C@@H](CCc4ccc(Cl)c(Cl)c4)C(=O)N2C1)N1CC/C=C\C[C@@H](C1=O)N(C)C(=O)CN(C1CC1)C(=O)[C@H]([C@@H](C)CC)NC3=O [PP3040] | 10 | A (a compound having 10 or more and less than 20 is denoted as A) | AA (a compound having 20 or more is denoted as AA) |  |  |  | 
CCCN(C)C(=O)[C@@H]1CC(=O)N(C)[C@@H](CC(F)F)C(=O)N[C@@H]([C@@H](C)CC)C(=O)N(C)CC(=O)N(C)[C@H]2C/C=C\CCN(C2=O)[C@@H](Cc2ccc(C(F)(F)F)cc2)C(=O)N(C)CC(=O)N[C@@H](CCc2cc(F)c(Cl)c(F)c2)C(=O)N2C[C@H](OCC)C[C@H]2C(=O)NC2(CC(C)(C)C2)C(=O)N(C)[C@@H](C2CCCC2)C(=O)N1C [PP1757] | 7.1 |  |  | A (a compound having 10 or more and less than 20 is denoted as A) | AA (a compound having 20 or more is denoted as AA) |  | 
CCC[C@H]1C(=O)N[C@@H]([C@@H](C)CC)C(=O)N(C)CC(=O)N(C)[C@H]2C/C=C\CCN(C2=O)[C@@H](Cc2ccc(C)cc2)C(=O)N(C)CC(=O)N[C@@H](CCc2cc(F)c(C(F)(F)F)c(F)c2)C(=O)N2C[C@H](OCC)C[C@H]2C(=O)N(C)C2(CCC2)C(=O)N(C)[C@@H](C2CCCC2)C(=O)N(C)[C@H](C(=O)N2CCCC2)CC(=O)N1C [PP3121] | 1.5 | A (a compound having 10 or more and less than 20 is denoted as A) | A (a compound having 10 or more and less than 20 is denoted as A) |  |  |  | 
CCO[C@@H]1C[C@H]2C(=O)NC3(CCC3)C(=O)N(C)[C@@H](C3CCCC3)C(=O)N(C)[C@H](C(=O)N3CCOCC3)CC(=O)N(C)[C@@H](C)C(=O)N[C@@H]([C@@H](C)CC)C(=O)N(C)CC(=O)N(C)[C@H]3CCCCN(C3=O)[C@@H](Cc3ccc(C(F)(F)F)cc3)C(=O)N(C)CC(=O)N[C@@H](CCc3cc(F)c(C(F)(F)F)c(F)c3)C(=O)N2C1 [PP0585] | 6.2 |  |  |  |  | B (a compound having 3 or more and less than 10 is denoted as B) | B (a compound having 3 or more and less than 10 is denoted as B)
CCO[C@@H]1C[C@H]2C(=O)NC3(CCC3)C(=O)N(C)[C@@H](C3CCCC3)C(=O)N(C)[C@H](C(=O)N(C)C)CC(=O)N(C)[C@@H](CC)C(=O)N[C@@H]([C@@H](C)CC)C(=O)N(C)CC(=O)N(C)[C@H]3CCCCN(C3=O)[C@@H](Cc3ccc(C(F)(F)F)cc3)C(=O)N(C)CC(=O)N[C@@H](CCc3cc(F)c(C(F)(F)F)c(F)c3)C(=O)N2C1 [PP0693] | 3.8 |  |  |  |  | C (A compound having a KD ratio of 0.1 or more and less than 3 is denoted as C) | C (A compound having a KD ratio of 0.1 or more and less than 3 is denoted as C)
CC[C@H](C)[C@@H]1NC(=O)[C@H](CC2CCC2)N(C)C(=O)C[C@@H](C(=O)N(C)C)N(C)C(=O)[C@H](C2CCCC2)N(C)C(=O)C2(CC(C)(C)C2)NC(=O)[C@@H]2CCCN2C(=O)[C@H](CCc2cc(F)c(C(F)(F)F)c(F)c2)NC(=O)CN(C)C(=O)[C@H](Cc2ccc(C(F)(F)F)cc2)N2CC/C=C\C[C@@H](C2=O)N(C)C(=O)CN(C)C1=O [PP1728] | 18.3 |  |  | A (a compound having 10 or more and less than 20 is denoted as A) | A (a compound having 10 or more and less than 20 is denoted as A) |  | 
CCCOC[C@H]1C(=O)N[C@@H]([C@@H](C)CC)C(=O)N(C)CC(=O)N(C)[C@H]2C/C=C\CCN(C2=O)[C@@H](Cc2ccc(C(F)(F)F)cc2)C(=O)N(C)CC(=O)N[C@@H](CCc2cc(F)c(C(F)(F)F)c(F)c2)C(=O)N2C[C@H](OCC)C[C@H]2C(=O)NC2(CCC2)C(=O)N(C)[C@@H](C2CCCC2)C(=O)N(C)[C@H](C(=O)N(C)CC)CC(=O)N1C [PP1569] | 2.8 |  |  | B (a compound having 3 or more and less than 10 is denoted as B) | A (a compound having 10 or more and less than 20 is denoted as A) |  | 
CCO[C@@H]1C[C@H]2C(=O)NC3(CC(C)(C)C3)C(=O)N(C)[C@@H](C(CC)CC)C(=O)N(C)[C@H](C(=O)N3CCCC3)CC(=O)N(C)[C@@H](COC)C(=O)N[C@@H]([C@@H](C)CC)C(=O)N(C)CC(=O)N(C)[C@H]3C/C=C\CCN(C3=O)[C@@H](Cc3ccc(C(F)(F)F)cc3)C(=O)N(C)CC(=O)N[C@@H](CCc3cc(F)c(C(F)(F)F)c(F)c3)C(=O)N2C1 [PP2123] | 24.3 |  |  |  |  | A (a compound having 10 or more and less than 20 is denoted as A) | A (a compound having 10 or more and less than 20 is denoted as A)
CCC[C@H]1C(=O)N[C@@H](C2CCCCC2)C(=O)N(C)CC(=O)N(C)[C@H]2C/C=C\CCN(C2=O)[C@@H](Cc2ccc(C(F)(F)F)cc2)C(=O)N(C)CC(=O)N[C@@H](CCc2ccc(C(F)(F)F)c(Cl)c2)C(=O)N2C[C@H](OCC)C[C@H]2C(=O)NC2(CC(C)(C)C2)C(=O)N(C)[C@@H]([C@@H](C)CC)C(=O)N(C)[C@H](C(=O)N(C)C)CC(=O)N1C [PP3015] | 103 | A (a compound having 10 or more and less than 20 is denoted as A) | AA (a compound having 20 or more is denoted as AA) |  |  |  | 
CCO[C@@H]1C[C@H]2C(=O)NC3(CCC3)C(=O)N(C)[C@@H](C3CCCC3)C(=O)N(C)[C@H](C(=O)N(C)C)CC(=O)N(C)[C@H]3CCCCCCc4ccc(cc4)C[C@@H](C(=O)N(C)CC(=O)N[C@@H](CCc4ccc(C(F)(F)F)c(OC)c4)C(=O)N2C1)N1CC/C=C\C[C@@H](C1=O)N(C)C(=O)CN(C)C(=O)[C@H]([C@@H](C)CC)NC3=O [PP2264] | 13.1 |  |  |  |  | A (a compound having 10 or more and less than 20 is denoted as A) | AA (a compound having 20 or more is denoted as AA)
CC[C@H](C)[C@@H]1NC(=O)[C@H](C(C)C)N(C)C(=O)C[C@@H](C(=O)N(C)CC)N(C)C(=O)[C@H](C2CCCC2)N(C)C(=O)C2(CC(C)(C)C2)NC(=O)[C@@H]2C[C@H](C)CN2C(=O)[C@H](CCc2ccc(C(F)(F)F)c(OC)c2)NC(=O)CN(C)C(=O)[C@H](Cc2ccc(C(F)(F)F)cc2)N2CC/C=C\C[C@@H](C2=O)N(C)C(=O)CN(C)C1=O [PP2003] | 11.3 |  |  |  |  | B (a compound having 3 or more and less than 10 is denoted as B) | A (a compound having 10 or more and less than 20 is denoted as A)
CC[C@H](C)[C@@H]1NC(=O)[C@H](COC)N(C)C(=O)C[C@@H](C(=O)N2CCOCC2)N(C)C(=O)[C@H](C2CCCC2)N(C)C(=O)C2(CCCC2)NC(=O)[C@@H]2CCCN2C(=O)[C@H](CCc2cc(F)c(C(F)(F)F)c(F)c2)NC(=O)CN(C)C(=O)[C@H](Cc2ccc(C(F)(F)F)cc2)N2CCCCC[C@@H](C2=O)N(C)C(=O)CN(C)C1=O [PP0845] | 135 | B (a compound having 3 or more and less than 10 is denoted as B) | B (a compound having 3 or more and less than 10 is denoted as B) |  |  |  | 
CCO[C@@H]1C[C@H]2C(=O)NC3(CCC3)C(=O)N(C)[C@@H](C(C)C)C(=O)N(C)[C@H](C(=O)N(C)C)CC(=O)N(C)[C@@H](CC)C(=O)N[C@@H]([C@@H](C)CC)C(=O)N(C)CC(=O)N(C)[C@H]3C/C=C\CCN(C3=O)[C@@H](Cc3ccc(C(F)(F)F)cc3)C(=O)N(C)CC(=O)N[C@@H](CCc3cc(F)c(C(F)(F)F)c(F)c3)C(=O)N2C1 [PP1088] | 195 | A (a compound having 10 or more and less than 20 is denoted as A) | A (a compound having 10 or more and less than 20 is denoted as A) |  |  |  | 
CC[C@H](C)[C@@H]1NC(=O)[C@H](CC2CC2)N(C)C(=O)C[C@@H](C(=O)N(C)CC)N(C)C(=O)[C@H](C2CCCC2)N(C)C(=O)C2(CCC2)NC(=O)[C@@H]2C[C@H](C)CN2C(=O)[C@H](CCc2cc(F)c(C(F)(F)F)c(F)c2)NC(=O)CN(C)C(=O)[C@H](Cc2ccc(C(F)(F)F)cc2)N2CC/C=C\C[C@@H](C2=O)N(C)C(=O)CN(C)C1=O [PP1537] | 7.9 |  |  | A (a compound having 10 or more and less than 20 is denoted as A) | AA (a compound having 20 or more is denoted as AA) |  | 
CCO[C@@H]1C[C@H]2C(=O)NC3(CCCC3)C(=O)N(C)[C@@H](C3CCCC3)C(=O)N(C)[C@H](C(=O)N(C)C)CC(=O)N(C)[C@@H](CC(C)C)C(=O)N[C@@H]([C@@H](C)CC)C(=O)N(C)CC(=O)N(C)[C@H]3C/C=C\CCN(C3=O)[C@@H](Cc3ccc(C(F)(F)F)cc3)C(=O)N(C)CC(=O)N[C@@H](CCc3ccc(Cl)c(Cl)c3)C(=O)N2C1 [PP2837] | 12.8 | A (a compound having 10 or more and less than 20 is denoted as A) | AA (a compound having 20 or more is denoted as AA) |  |  |  | 
CCCN1C(=O)CN(C)C(=O)CNC(=O)[C@H]([C@@H](C)CC)NC(=O)[C@H](CC(C)C)N(C)C(=O)C[C@@H](C(=O)N(C)C)NC(=O)[C@H](C2CCCC2)N(C)C(=O)C2(CCCC2)NC(=O)[C@@H]2CC(F)(F)CN2C(=O)[C@H](CCc2ccc(C(F)(F)F)c(Cl)c2)NC(=O)CN(C)C(=O)[C@@H]1Cc1ccc(C(F)(F)F)cc1 [PP0363] ([NMeL]IG[Sar][NPrPhe(4-CF3)][Sar][hPhe(3-Cl-4-CF3)][Pro(4,4-F2)][Ac5c][NMeGly(cPent)]D-NMe2; lactam N-11) | 91.4 | C (A compound having a KD ratio of 0.1 or more and less than 3 is denoted as C) | B (a compound having 3 or more and less than 10 is denoted as B) |  |  |  | 
